Experimental data taken from patent US8618289B2 (Ambit Biosciences Corporation, priority 2008, dated 2013).
Like-named read-outs stand apart in the source and are kept apart here.

What was measured:
[1] = test system: MEK1 phosphorylation in the A375 human melanoma cell line; test: cells; conditions: A-375, read-out: pMEK IC50
A375 cells = test: cells; conditions: Homo sapiens, A-375, read-out: A375 Viability EC50
RAF kinases [2] = molecular target: RAF kinases (Homo sapiens, UniProt P15056); test: biochemical
Sequence of RAF kinases (Homo sapiens, UniProt P15056) (P15056 whole entry): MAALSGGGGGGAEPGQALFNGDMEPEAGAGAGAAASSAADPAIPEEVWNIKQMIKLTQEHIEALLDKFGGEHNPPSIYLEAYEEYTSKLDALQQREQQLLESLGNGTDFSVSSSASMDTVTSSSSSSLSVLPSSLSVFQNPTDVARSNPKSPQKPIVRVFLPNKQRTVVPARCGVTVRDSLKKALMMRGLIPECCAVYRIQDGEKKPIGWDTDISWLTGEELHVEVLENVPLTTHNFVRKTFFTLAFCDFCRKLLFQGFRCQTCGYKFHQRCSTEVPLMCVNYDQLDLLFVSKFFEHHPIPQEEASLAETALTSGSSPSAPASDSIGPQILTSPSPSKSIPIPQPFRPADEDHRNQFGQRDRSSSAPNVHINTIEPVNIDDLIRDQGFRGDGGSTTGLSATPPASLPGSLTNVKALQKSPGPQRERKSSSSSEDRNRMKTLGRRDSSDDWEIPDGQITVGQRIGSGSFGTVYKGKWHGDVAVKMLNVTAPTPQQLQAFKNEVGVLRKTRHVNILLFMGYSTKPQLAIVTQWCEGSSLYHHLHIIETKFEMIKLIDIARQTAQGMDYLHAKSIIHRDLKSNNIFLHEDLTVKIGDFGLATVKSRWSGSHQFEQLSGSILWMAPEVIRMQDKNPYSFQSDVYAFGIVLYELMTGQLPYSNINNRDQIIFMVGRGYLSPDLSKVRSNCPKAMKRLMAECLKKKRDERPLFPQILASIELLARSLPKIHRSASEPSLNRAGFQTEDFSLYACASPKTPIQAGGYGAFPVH

RAF kinases [3] = molecular target: T1, RAF kinases (Homo sapiens, UniProt P15056, V600E); test: biochemical
T1 sequence (P15056 whole entry V600E): as the sequence (P15056 whole entry) above, with V600E counted along it

RAF kinases [4] = molecular target: T2, RAF kinases (Homo sapiens, UniProt P04049); test: biochemical
T2 sequence (P04049 whole entry): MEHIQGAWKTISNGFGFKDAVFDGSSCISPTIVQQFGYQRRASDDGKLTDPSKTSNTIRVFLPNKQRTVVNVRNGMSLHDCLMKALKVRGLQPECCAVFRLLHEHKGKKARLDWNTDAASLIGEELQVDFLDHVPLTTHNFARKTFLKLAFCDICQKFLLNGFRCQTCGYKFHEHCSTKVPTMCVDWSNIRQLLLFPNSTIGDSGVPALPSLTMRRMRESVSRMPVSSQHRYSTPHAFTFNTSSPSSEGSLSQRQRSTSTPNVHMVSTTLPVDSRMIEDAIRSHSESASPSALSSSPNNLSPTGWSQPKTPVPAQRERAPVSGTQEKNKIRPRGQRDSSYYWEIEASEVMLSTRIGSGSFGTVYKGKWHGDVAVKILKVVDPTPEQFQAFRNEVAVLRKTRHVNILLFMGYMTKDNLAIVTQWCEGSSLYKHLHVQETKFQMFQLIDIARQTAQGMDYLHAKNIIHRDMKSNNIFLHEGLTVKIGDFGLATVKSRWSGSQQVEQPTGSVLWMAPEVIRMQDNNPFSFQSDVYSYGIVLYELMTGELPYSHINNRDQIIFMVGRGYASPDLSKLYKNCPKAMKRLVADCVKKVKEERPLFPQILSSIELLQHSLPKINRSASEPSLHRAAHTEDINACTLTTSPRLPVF

RAF kinases [5] = molecular target: T1, RAF kinases; conditions: read-out: BRAF V600E Kd; BRAF V600E
RAF kinases [6] = molecular target: T2, RAF kinases; conditions: read-out: RAF1 Kd; RAF1

| Compound | IC50 [1] [nM] | EC50 (A375 cells) [nM] | Kd (RAF kinases [2]) [nM] | Kd (RAF kinases [3]) [nM] | Kd (RAF kinases [4]) [nM] | Kd (RAF kinases [5]) [nM] | Kd (RAF kinases [6]) [nM] |
| --- | --- | --- | --- | --- | --- | --- | --- |
| COc1cc2ncnc(Oc3cccc(NC(=O)Nc4cc(C(C)(C)C#N)no4)c3)c2cc1OC [Ex 125, 1-(3-(2-cyanopropan-2-yl)isoxazol-5-yl)-3-(3-(6,7-dimethoxyquinazolin-4-yloxy)phenyl)urea] | 250 to 500 | > 1000 | 250 to 500 | < 250 | 250 to 500 |  |  |
| COc1cc2ncnc(Oc3cccc(NC(=O)Nc4cc(C(C)(C)F)no4)c3)c2cc1OC [Ex 126, 1-(3-(6,7-dimethoxyquinazolin-4-yloxy)phenyl)-3-(3-(2-fluoropropan-2-yl)isoxazol-5-yl)urea] | < 250 | 500 to 1000 | 250 to 500 | < 250 | < 250 |  |  |
| COc1cc2ncnc(Oc3cccc(NC(=O)Nc4cc(C5(C(F)(F)F)CC5)nn4-c4ccccc4)c3)c2cc1OC [Ex 137, 1-(3-(6,7-dimethoxyquinazolin-4-yloxy)phenyl)-3-(1-phenyl-3-(1-(trifluoromethyl)cyclopropyl)-1H-pyrazol-5-yl)urea] | < 250 | 500 to 1000 | > 1000 | 500 to 1000 | > 1000 |  |  |
| COc1cc2ncnc(Oc3cccc(NC(=O)Nc4ccc(C(F)(F)F)c(F)c4)c3)c2cc1OC [Ex 150, 1-(3-(6,7-dimethoxyquinazolin-4-yloxy)phenyl)-3-(3-fluoro-4-(trifluoromethyl)phenyl)urea] | > 1000 | > 1000 | 500 to 1000 | 250 to 500 | 500 to 1000 |  |  |
| COc1cc2ncnc(Oc3cccc(NC(=O)Nc4cc(C(C)(CF)CF)no4)c3)c2cc1OC [Ex 159, 1-[3-(1,3-difluoro-2-methylpropan-2-yl)isoxazol-5-yl]-3-[3-(6,7-dimethoxyquinazolin-4-yloxy]phenyl)urea] | 250 to 500 | > 1000 | 500 to 1000 | 250 to 500 | 500 to 1000 |  |  |
| COc1cc2ncnc(Sc3cccc(NC(=O)Nc4ccc(C(F)(F)F)cc4)c3)c2cc1OC [Ex 184, 1-(3-(6,7-dimethoxyquinazolin-4-ylthio)phenyl)-3-(4-(trifluoromethyl)phenyl)urea] | 250 to 500 | 500 to 1000 | 500 to 1000 | 250 to 500 | 250 to 500 |  |  |
| CCOC(C)(C)c1cc(NC(=O)Nc2cccc(Sc3ncnc4cc(OC)c(OC)cc34)c2)n(-c2ccccc2)n1 [Ex 197, 1-[3-(6,7-dimethoxyquinazolin-4-ylthio)phenyl]-3-[3-(2-ethoxypropan-2-yl)-1-phenyl-1H-pyrazol-5-yl]urea] | 250 to 500 | > 1000 | > 1000 | 250 to 500 | > 1000 |  |  |
| COCCOc1cc2ncnc(Oc3cccc(NC(=O)Nc4cc(-c5ccccc5)on4)c3)c2cc1OC [Ex 203, 1-(3-(6-methoxy-7-(2-methoxyethoxy)quinazolin-4-yloxy)phenyl)-3-(5-phenylisoxazol-3-yl)urea] | > 1000 | > 1000 | > 1000 | > 1000 | > 1000 |  |  |
| COCCOc1cc2ncnc(Oc3cccc(NC(=O)Nc4cc(C(C)(C)C)nn4C)c3)c2cc1OC [Ex 209, 1-(3-tert-butyl-1-methyl-1H-pyrazol-5-yl)-3-(3-(6-methoxy-7-(2-methoxyethoxy)quinazolin-4-yloxy)phenyl)urea] | 500 to 1000 | > 1000 | > 1000 | 250 to 500 | > 1000 |  |  |
| COCCOc1cc2ncnc(Oc3cccc(NC(=O)Nc4cc(C(C)(F)F)no4)c3)c2cc1OC [Ex 211, 1-(3-(1,1-difluoroethyl)isoxazol-5-yl)-3-(3-(6-methoxy-7-(2-methoxyethoxy)quinazolin-4-yloxy)phenyl)urea] | > 1000 | > 1000 | 500 to 1000 | 250 to 500 | 250 to 500 |  |  |
| COCCOc1cc2ncnc(Oc3cccc(NC(=O)Nc4cc(C(C)(CF)CF)on4)c3)c2cc1OC [Ex 213, 1-[5-(1,3-difluoro-2-methylpropan-2-yl)isoxazol-3-yl]-3-{3-[6-methoxy-7-(2-methoxyethoxy)quinazolin-4-yloxy]phenyl}urea] | < 250 | < 250 | 250 to 500 |  |  | < 250 | < 250 |
| COCCOc1cc2ncnc(Oc3cccc(NC(=O)Nc4cc(C(C)(C)COC)on4)c3)c2cc1OC [Ex 217, 1-(5-(1-methoxy-2-methylpropan-2-yl)isoxazol-3-yl)-3-(3-(6-methoxy-7-(2-methoxyethoxy)quinazolin-4-yloxy)phenyl)urea] | 250 to 500 | > 1000 | 250 to 500 | < 250 | 250 to 500 |  |  |
| COCCOc1cc2ncnc(Oc3cccc(NC(=O)Nc4cc(C(C)(C)F)no4)c3)c2cc1OC [Ex 218, 1-(3-(2-fluoropropan-2-yl)isoxazol-5-yl)-3-(3-(6-methoxy-7-(2-methoxyethoxy)quinazolin-4-yloxy)phenyl)urea] | 250 to 500 | > 1000 | 250 to 500 |  |  | < 250 | < 250 |
| COCCOc1cc2ncnc(Oc3cccc(NC(=O)Nc4cc(C(F)(F)F)nn4-c4ccccc4)c3)c2cc1OC [Ex 221, 1-{3-[6-methoxy-7-(2-methoxyethoxy)quinazolin-4-yloxy]phenyl}-3-[1-phenyl-3-(trifluoromethyl)-1H-pyrazol-5-yl]urea] | 250 to 500 | 500 to 1000 | > 1000 | 250 to 500 | > 1000 |  |  |
| COCCOc1cc2ncnc(Oc3cccc(NC(=O)Nc4ccc(C(F)(F)F)c(F)c4)c3)c2cc1OC [Ex 222, 1-(3-fluoro-4-(trifluoromethyl)phenyl)-3-(3-(6-methoxy-7-(2-methoxyethoxy)quinazolin-4-yloxy)phenyl)urea] | > 1000 | > 1000 | 500 to 1000 | 250 to 500 | 250 to 500 |  |  |
| COCCOc1cc2ncnc(Oc3cccc(NC(=O)Nc4cc(C(F)(F)F)no4)c3)c2cc1OC [Ex 229, 1-(3-(6-methoxy-7-(2-methoxyethoxy)quinazolin-4-yloxy)phenyl)-3-(3-(trifluoromethyl)isoxazol-5-yl)urea] | > 1000 | > 1000 | 250 to 500 |  |  | < 250 | < 250 |
| COCCOc1cc2ncnc(Sc3cccc(NC(=O)Nc4cc(C5CCCC5)on4)c3)c2cc1OC [Ex 235, 1-(5-cyclopentylisoxazol-3-yl)-3-(3-(6-methoxy-7-(2-methoxyethoxy)quinazolin-4-ylthio)phenyl)urea] | 250 to 500 | > 1000 | 250 to 500 |  |  | < 250 | < 250 |
| COCCOc1cc2ncnc(Sc3cccc(NC(=O)Nc4cc(C(F)(F)F)nn4-c4ccc(F)cc4)c3)c2cc1OC [Ex 242, 1-[1-(4-fluorophenyl)-3-(trifluoromethyl)-1H-pyrazol-5-yl]-3-{3-[6-methoxy-7-(2-methoxyethoxy)quinazolin-4-ylthio]phenyl}urea] | 500 to 1000 | > 1000 | > 1000 | > 1000 | > 1000 |  |  |
| COc1cc2c(Sc3cccc(NC(=O)Nc4ccc(OC)c(C(F)(F)F)c4)c3)ncnc2cc1OCCN1CCOCC1 [Ex 249, 1-(4-methoxy-3-(trifluoromethyl)phenyl)-3-(3-(6-methoxy-7-(2-morpholinoethoxy)quinazolin-4-ylthio)phenyl)urea] | 500 to 1000 | > 1000 | 500 to 1000 | 250 to 500 | 500 to 1000 |  |  |
| COc1cc2ncnc(Sc3cccc(NC(=O)Nc4cc(C(C)(C)C(F)(F)F)on4)c3)c2cc1OC [Ex 261, 1-(3-(6,7-dimethoxyquinazolin-4-ylthio)phenyl)-3-(5-(1,1,1-trifluoro-2-methylpropan-2-yl)isoxazol-3-yl)urea] | < 250 | > 1000 | 250 to 500 | < 250 | < 250 |  |  |
| COCCOc1cc2ncnc(Sc3cccc(NC(=O)Nc4cccc(C(C)(C)C#N)c4)c3)c2cc1OC [Ex 281, 1-(3-(2-cyanopropan-2-yl)phenyl)-3-(3-(6-methoxy-7-(2-methoxyethoxy)quinazolin-4-ylthio)phenyl)urea] | 250 to 500 | > 1000 | < 250 | < 250 | < 250 |  |  |
| COc1cc2ncnc(Oc3ccc(Cl)c(NC(=O)Nc4cc(C(C)(C)C)on4)c3)c2cc1OC [Ex 299, 1-(5-tert-butylisoxazol-3-yl)-3-(2-chloro-5-(6,7-dimethoxyquinazolin-4-yloxy)phenyl)urea] | < 250 |  | 250 to 500 |  |  | < 250 | < 250 |
| COc1cc2ncnc(Oc3cccc(NC(=O)Nc4cc(C(C)(C)C)nn4-c4cccc(Cl)c4)c3)c2cc1OC [Ex 363, 1-(3-tert-butyl-1-(3-chlorophenyl)-1H-pyrazol-5-yl)-3-(3-(6,7-dimethoxyquinazolin-4-yloxy)phenyl)urea] | < 250 |  | 250 to 500 |  |  | < 250 | > 1000 |
| COc1cc2ncnc(Sc3cccc(NC(=O)Nc4cc(C(C)(C)C)nn4-c4cccc(Cl)c4)c3)c2cc1OC [Ex 364, 1-(3-tert-butyl-1-(3-chlorophenyl)-1H-pyrazol-5-yl)-3-(3-(6,7-dimethoxyquinazolin-4-ylthio)phenyl)urea] | < 250 |  | 500 to 1000 |  |  | < 250 | > 1000 |
| CCOc1cc2c(Oc3cccc(NC(=O)Nc4cc(C(F)(F)F)nn4-c4ccccc4)c3)ncnc2cc1OC [Ex 391, 1-(3-(6-ethoxy-7-methoxyquinazolin-4-yloxy)phenyl)-3-(1-phenyl-3-(trifluoromethyl)-1H-pyrazol-5-yl)urea] | < 250 | < 250 | 250 to 500 | < 250 | 250 to 500 |  |  |
